Data published in ChEMBL document CHEMBL5357001, “Coriaceumins A-D, the First Nitrogen-Containing Crenulide Diterpenoids from the Brown Alga Dictyota coriacea Collected in the East China Sea” (J Nat Prod, 2024).
The source made the active and inactive calls. No cut-off for these calls is given here.

What was measured:
A549 = assay: Cytotoxicity against human A549 cells assessed as reduction in cell viability at 20 uM incubated for 3 days by CCK-8 assay; format: functional, cell-based; details: time 3.0 day
[1] = target: T1, Tyrosine-protein phosphatase non-receptor type 1 (Homo sapiens) (UniProt P18031); assay: Inhibition of recombinant PTP1B (unknown origin) using pNPP as substrate at 20 uM relative to control
T1 sequence (whole entry): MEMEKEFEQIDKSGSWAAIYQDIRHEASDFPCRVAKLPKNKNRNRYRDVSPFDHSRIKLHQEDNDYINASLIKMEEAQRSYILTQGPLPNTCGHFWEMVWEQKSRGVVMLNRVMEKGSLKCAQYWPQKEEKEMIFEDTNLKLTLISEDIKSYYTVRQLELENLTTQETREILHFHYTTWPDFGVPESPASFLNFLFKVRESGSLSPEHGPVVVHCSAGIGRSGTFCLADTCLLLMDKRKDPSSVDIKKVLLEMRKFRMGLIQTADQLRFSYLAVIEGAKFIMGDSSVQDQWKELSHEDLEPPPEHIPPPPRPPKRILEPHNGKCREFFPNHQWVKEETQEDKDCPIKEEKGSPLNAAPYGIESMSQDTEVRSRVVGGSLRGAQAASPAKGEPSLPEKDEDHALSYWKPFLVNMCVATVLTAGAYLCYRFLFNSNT

HL-60 = assay: Cytotoxicity against human HL-60 cells assessed as reduction in cell viability at 20 uM incubated for 3 days by CCK-8 assay; format: functional, cell-based; details: time 3.0 day
[2] = target: T2, Tyrosine-protein phosphatase non-receptor type 1 (Homo sapiens, UniProt P18031); assay: Inhibition of recombinant PTP1B (unknown origin) using pNPP as substrate relative to control
T2 sequence (P18031 whole entry): T1 sequence (whole entry)

Row | SMILES | Activity (A549) | inhibition [1] [%] | Activity (HL-60) | IC50 [2] [µM]
1 | CCO[C@@H]1C/C=C(\C)CC[C@@H]([C@H](C)CCC=C(C)C)C2=C1C(=O)N[C@@H]2O | inactive | 38 | inactive | –
2 | CC(C)=CCC[C@@H](C)[C@H]1C2=C(C(=O)NC2)[C@H]2C[C@H]2[C@H](C)C[C@H]1O | inactive | 40 | inactive | –
3 | CC(C)=CCC[C@@H](C)[C@H]1C2=C(C(=O)OC2)[C@H]2C[C@H]2[C@H](C)C[C@H]1O | inactive | 86 | inactive | 7.3
4 | CCO[C@@H]1C/C=C(\C)CC[C@@H]([C@H](C)CCC=C(C)C)C2=C1C(=O)N[C@H]2O | inactive | 81 | inactive | 9.5
5 | CC(=O)O[C@@H]1C[C@@H](C)[C@@H]2C[C@@H]2C2=C(C(=O)NC2)[C@@H]1[C@H](C)CCC=C(C)C | inactive | 52 | inactive | 19
6 | CC(=O)O[C@@H]1C[C@@H](C)[C@@H]2C[C@@H]2C2=C(CNC2=O)[C@@H]1[C@H](C)CCC=C(C)C | inactive | 73 | inactive | 13
7 | C=C(C)C(=O)CC[C@@H](C)[C@H]1C2=C(CNC2=O)[C@H]2C[C@H]2[C@H](C)C[C@H]1OC(C)=O | inactive | 47 | inactive | –
